Reference: the supplement of paper PMC10307832

Experiments:
Experiment in all cases: relative viability (nuclei count vs DMSO), 5 days (fraction); higher = more cells survive
[1] = compound: O=C(Nc1cccc(C(F)(F)F)c1)Nc1cc(S(=O)(=O)NC2CC2)ccc1-c1ccsc1 [AGI-6780] + Nc1ncn([C@H]2C[C@H](O)[C@@H](CO)O2)c(=O)n1 [Decitabine] (partner 2 µM)
Outline: (§1)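 Lung cancer cell lines were pin-tool dosed in 1536-well plates on the day after seeding, with either a lone drug or a fixed anchor-drug dose plus five library-drug doses (not always all listed) in √10 steps. Nuclei were counted on 4× images after 5 days. Relative viability is the ratio of treated-well to vehicle-well nuclei counts, with each value a median of duplicate plates.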

[2] = compound: O=C(Nc1cccc(C(F)(F)F)c1)Nc1cc(S(=O)(=O)NC2CC2)ccc1-c1ccsc1 [AGI-6780] + O=C(c1cc(Cc2n[nH]c(=O)c3ccccc23)ccc1F)N1CCN(C(=O)C2CC2)CC1 [Olaparib] (partner 8 µM)
Outline: as §1

[3] = compound: O=C(Nc1cccc(C(F)(F)F)c1)Nc1cc(S(=O)(=O)NC2CC2)ccc1-c1ccsc1 [AGI-6780] + CS(=O)(=O)CCNCc1ccc(-c2ccc3ncnc(Nc4ccc(OCc5cccc(F)c5)c(Cl)c4)c3c2)o1 [Lapatinib] (partner 2 µM)
Outline: as §1

[4] = compound: O=C(Nc1cccc(C(F)(F)F)c1)Nc1cc(S(=O)(=O)NC2CC2)ccc1-c1ccsc1 [AGI-6780] + NC(=O)Nc1cc(-c2cccc(F)c2)sc1C(=O)N[C@H]1CCCNC1 [AZD7762] (partner 0.2 µM)
Outline: as §1

Cell Line	relative viability ([1]; first compound 0.08 µM)	relative viability ([1]; first compound 0.253 µM)	relative viability ([1]; first compound 0.8 µM)	relative viability ([1]; first compound 2.53 µM)	relative viability ([1]; first compound 8 µM)	relative viability ([2]; first compound 0.08 µM)	relative viability ([2]; first compound 0.253 µM)	relative viability ([2]; first compound 0.8 µM)	relative viability ([2]; first compound 2.53 µM)	relative viability ([2]; first compound 8 µM)	relative viability ([3]; first compound 0.08 µM)	relative viability ([3]; first compound 0.253 µM)	relative viability ([3]; first compound 0.8 µM)	relative viability ([3]; first compound 2.53 µM)	relative viability ([3]; first compound 8 µM)	relative viability ([4]; first compound 0.08 µM)	relative viability ([4]; first compound 0.253 µM)	relative viability ([4]; first compound 0.8 µM)	relative viability ([4]; first compound 2.53 µM)	relative viability ([4]; first compound 8 µM)
NCI-H1650	0.435	0.485	0.381	0.305	0.387	0.884	0.774	0.934	0.689	0.791	0.739	0.777	1.16	0.789	0.874	–	–	–	–	–
NCI-H1703	–	–	–	–	–	0.728	0.37	0.457	0.373	0.25	1.11	0.87	1.82	1.13	0.93	0.14	0.139	0.0936	0.112	0.133
NCI-H2009	0.396	0.365	0.428	0.322	0.382	0.643	0.745	0.67	0.644	0.625	0.952	0.889	0.976	0.917	0.959	–	–	–	–	–
NCI-H2023	0.208	0.238	0.256	0.233	0.239	0.5	0.444	0.437	0.374	0.492	0.902	0.992	1	0.556	0.906	–	–	–	–	–
NCI-H2228	–	–	–	–	–	0.686	0.769	0.591	0.41	0.736	1.2	1.05	0.825	0.771	1.27	–	–	–	–	–
NCI-H2342	0.727	0.733	0.732	0.65	0.99	0.407	0.437	0.504	0.497	0.565	–	–	–	–	–	0.47	0.667	0.612	0.499	0.733
SK-LU-1	0.73	0.63	0.567	0.583	0.572	0.506	0.482	0.349	0.402	0.456	0.928	0.857	0.683	0.863	1.14	–	–	–	–	–
SK-MES-1	0.364	0.382	0.462	0.294	0.377	0.738	0.667	0.628	0.643	0.592	0.482	0.524	0.441	0.407	0.427	–	–	–	–	–
SW 900	0.454	0.454	0.386	0.413	0.445	0.741	0.826	0.923	0.878	0.803	–	–	–	–	–	0.657	0.676	0.811	0.557	0.634
SW 1573	0.6	0.449	0.65	0.417	0.493	0.578	0.481	0.525	0.426	0.465	1.3	1.29	1.08	0.957	1.06	–	–	–	–	–
UMC-11	0.394	0.335	0.7	–	0.678	0.393	0.38	0.4	–	0.434	1.03	0.92	1.09	–	1.16	–	–	–	–	–
